Our source for the carcinogen call values is PubChem BioAssay AID1259411 (Chemical Carcinogenesis Research Information System (CCRIS), 2018).

Each structure is given as a SMILES string. Active and inactive are the calls of the source. No rule for the calls is given here.

In this series the test system is rodent carcinogenicity bioassays, tumor incidence. The experiment in a line: CCRIS carcinogenicity studies. In a few lines: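 NCI-built, expert-reviewed records of carcinogenicity and related test outcomes (mutagenicity, tumor promotion/inhibition) compiled from published and report sources, historical span 1985-2011, not updated.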

With `CC1=CC(C)(C)Nc2ccccc21`, the carcinogen call is “inactive; negative” (Species: MOUSE, Strain/Sex: B6C3F1/FEMALE, Route: DERMAL, Dose: 0, 3.6, 6, 10 MG/KG BW IN ACETONE 5 D/WK FOR 103 WK (STUDY DURATION: 103 WK), Dose: 0, 3.6, 6, 10 MG/KG BW IN ACETONE 5 D/WK FOR 103 WK (STUDY DURATION: 103 WK)); “inactive; negative” (Species: MOUSE, Strain/Sex: B6C3F1/MALE, Route: DERMAL, Dose: 0, 3.6, 6, 10 MG/KG BW IN ACETONE 5 D/WK FOR 103 WK (STUDY DURATION: 103 WK), Dose: 0, 3.6, 6, 10 MG/KG BW IN ACETONE 5 D/WK FOR 103 WK (STUDY DURATION: 103 WK)); “inactive; negative” (Species: RAT, Strain/Sex: F344/FEMALE, Route: DERMAL, Dose: 0, 36, 60, 100 MG/KG BW IN ACETONE 5 D/WK FOR 104 WK (STUDY DURATION: 106 WK), Dose: 0, 36, 60, 100 MG/KG BW IN ACETONE 5 D/WK FOR 104 WK (STUDY DURATION: 106 WK)); “active; positive” (Species: RAT, Strain/Sex: F344/MALE, Route: DERMAL, Dose: 0, 36, 60, 100 MG/KG BW IN ACETONE 5 D/WK FOR 103 WK (STUDY DURATION: 105 WK), Dose: 0, 36, 60, 100 MG/KG BW IN ACETONE 5 D/WK FOR 103 WK (STUDY DURATION: 105 WK), Tumor Site: Type of Lesion: KIDNEY(RENAL TUBULE): ADENOMA OR CARCINOMA).

For the compound `Nc1cc(S(=O)(=O)[O-])cc2c1C(=O)/C(=N\Nc1ccc(-c3ccc(N/N=C4\C(=O)c5c(N)cc(S(=O)(=O)[O-])cc5C=C4S(=O)(=O)[O-])c(O)c3)cc1O)C(S(=O)(=O)[O-])=C2.[Cu].[Cu].[Na+].[Na+].[Na+].[Na+]`, the carcinogen call runs as follows: (Species: MOUSE, Strain/Sex: B6C3F1/FEMALE, Route: ORAL, Dose: 0, 1000, 3000, 10000 PPM IN DIET FOR 103 WK (STUDY DURATION: 106 WK), Dose: 0, 1000, 3000, 10000 PPM IN DIET FOR 103 WK (STUDY DURATION: 106 WK), Tumor Site: Type of Lesion: LIVER: HEPATOCELLULAR ADENOMA, HEPATOCELLULAR CARCINOMA) “active; positive”; (Species: MOUSE, Strain/Sex: B6C3F1/MALE, Route: ORAL, Dose: 0, 1000, 3000, 10000 PPM IN DIET FOR 103 WK (STUDY DURATION: 106 WK), Dose: 0, 1000, 3000, 10000 PPM IN DIET FOR 103 WK (STUDY DURATION: 106 WK), Tumor Site: Type of Lesion: LIVER: HEPATOCELLULAR ADENOMA, HEPATOCELLULAR CARCINOMA) “active; positive”; (Species: RAT, Strain/Sex: F344/FEMALE, Route: ORAL, Dose: 0, 1000, 3000, 10000 PPM IN DIET FOR 103 WK (STUDY DURATION: 105 WK), Dose: 0, 1000, 3000, 10000 PPM IN DIET FOR 103 WK (STUDY DURATION: 105 WK)) “inactive; negative”; (Species: RAT, Strain/Sex: F344/MALE, Route: ORAL, Dose: 0, 1000, 3000, 10000 PPM IN DIET FOR 103 WK (STUDY DURATION: 105 WK), Dose: 0, 1000, 3000, 10000 PPM IN DIET FOR 103 WK (STUDY DURATION: 105 WK), Tumor Site: Type of Lesion: PHARYNX: SQUAMOUS CELL PAPILLOMA OR SQUAMOUS CELL CARCINOMA) “active; positive”.

As to `c1ccc2c(c1)-c1ccc3ccc4cccc5cc-2c1c3c45`, the carcinogen call by setting is: (Species: MOUSE, Strain/Sex: ICR/FEMALE, Route: DERMAL, Tumor Site: Type of Lesion: INTEGUMENTARY SYSTEM (SKIN): PAPILLOMA, CARCINOMA) “active; positive”; (Species: MOUSE, Strain/Sex: XVII-NC/Z/MALE, Route: SUBCUTANEOUS, Tumor Site: Type of Lesion: INJECTION SITE: SARCOMA) “active; positive”; (Species: RAT, Strain/Sex: OSBORNE-MENDEL/FEMALE, Route: LUNG IMPLANT, Dose: 0, 0.16, 0.83, 4.15 MG IN BEESWAX/TRIOCTANOIN (STUDY DURATION: LIFETIME), Dose: 0, 0.16, 0.83, 4.15 MG IN BEESWAX/TRIOCTANOIN (STUDY DURATION: LIFETIME), Tumor Site: Type of Lesion: LUNG: EPIDERMOID CARCINOMA) “active; positive”.

On to `OC1c2cc3c4c(ccc5cccc(c54)C3)c2C2OC2C1O` (stereo not drawn), for which the carcinogen call reads like this: (Species: MOUSE, Strain/Sex: ICR/FEMALE, Route: INTRAPERITONEAL, Dose: 0, 500 NMOL (TOTAL DOSE) ADMINISTERED IN DOSES OF 1/7, 2/7, AND 4/7 ON DAYS 1, 7, AND 15 OF LIFE, RESPECTIVELY (STUDY DU, Tumor Site: Type of Lesion: LUNG: TUMOR) “active; positive”; (Species: MOUSE, Strain/Sex: ICR/MALE, Route: INTRAPERITONEAL, Dose: 0, 500 NMOL (TOTAL DOSE) ADMINISTERED IN DOSES OF 1/7, 2/7, AND 4/7 ON DAYS 1, 7 AND 15 OF LIFE , RESPECTIVELY (STUDY DU, Tumor Site: Type of Lesion: LUNG: TUMOR, LIVER: TUMOR) “active; positive”.

Regarding `O=C(O)CN(CCN(CC(=O)O)CC(=O)O)CC(=O)O`, the carcinogen call reads like this: (Species: MOUSE, Strain/Sex: B6C3F1/FEMALE, Route: ORAL, Dose: 0, 3750, 7500 PPM IN DIET, Dose: 0, 3750, 7500 PPM IN DIET) “inactive; negative”; (Species: MOUSE, Strain/Sex: B6C3F1/MALE, Route: ORAL, Dose: 0, 3750, 7500 PPM IN DIET, Dose: 0, 3750, 7500 PPM IN DIET) “inactive; negative”; (Species: RAT, Strain/Sex: F344/FEMALE, Route: ORAL, Dose: 0, 3750, 7500 PPM IN DIET, Dose: 0, 3750, 7500 PPM IN DIET) “inactive; negative”; (Species: RAT, Strain/Sex: F344/MALE, Route: ORAL, Dose: 0, 3750, 7500 PPM IN DIET, Dose: 0, 3750, 7500 PPM IN DIET) “inactive; negative”.

Consider `COc1ccc(O)c(C(C)(C)C)c1`, for which, where the note is “Species: HAMSTER, Strain/Sex: SYRIAN/MALE, Route: ORAL, Dose: 1% IN DIET FOR 24 WK (STUDY DURATION: 24 WK), Tumor Site: Type of Lesion: FORESTOMACH: PAPILLOMA”, the carcinogen call was “active; positive”.

On to `CCCN(CCC)c1c([N+](=O)[O-])cc(C(F)(F)F)cc1[N+](=O)[O-]`, for which the carcinogen call was “inactive; negative” (Species: MOUSE, Strain/Sex: B6C3F1/FEMALE, Route: ORAL, Dose: 0, 563, 2250, 4500 PPM IN DIET FOR 2 YR (STUDY DURATION: 2 YR), Dose: 0, 563, 2250, 4500 PPM IN DIET FOR 2 YR (STUDY DURATION: 2 YR)); “active; positive” (Species: MOUSE, Strain/Sex: B6C3F1/FEMALE, Route: ORAL, Dose: 0, 2740, 5192 PPM IN DIET, TWA, Dose: 0, 2740, 5192 PPM IN DIET, TWA, Tumor Site: Type of Lesion: LUNG: ALVEOLAR/BRONCHIOLAR ADENOMA OR CARCINOMA, LIVER: HEPATOCELLULAR ADENOMA OR CARCINOMA); “inactive; negative” (Species: MOUSE, Strain/Sex: B6C3F1/MALE, Route: ORAL, Dose: 0, 563, 2250, 4500 PPM IN DIET FOR 2 YR (STUDY DURATION: 2 YR), Dose: 0, 563, 2250, 4500 PPM IN DIET FOR 2 YR (STUDY DURATION: 2 YR)); “inactive; negative” (Species: MOUSE, Strain/Sex: B6C3F1/MALE, Route: ORAL, Dose: 0, 2000, 3744 PPM IN DIET, TWA, Dose: 0, 2000, 3744 PPM IN DIET, TWA); “inactive; negative” (Species: MOUSE, Strain/Sex: NMRI/FEMALE, Route: ORAL, Dose: 0, 50, 200, 800 MG/KG IN DIET FOR 104 WK (STUDY DURATION: 104 WK), Dose: 0, 50, 200, 800 MG/KG IN DIET FOR 104 WK (STUDY DURATION: 104 WK)); “inactive; negative” (Species: MOUSE, Strain/Sex: NMRI/MALE, Route: ORAL, Dose: 0, 50, 200, 800 MG/KG IN DIET FOR 104 WK (STUDY DURATION: 104 WK), Dose: 0, 50, 200, 800 MG/KG IN DIET FOR 104 WK (STUDY DURATION: 104 WK)). Besides, the carcinogen call is, setting by setting: (Species: RAT, Strain/Sex: OSBORNE-MENDEL/FEMALE, Route: ORAL, Dose: 0, 4125, 7917 PPM IN DIET, TWA, Dose: 0, 4125, 7917 PPM IN DIET, TWA) “inactive; negative”; (Species: RAT, Strain/Sex: OSBORNE-MENDEL/MALE, Route: ORAL, Dose: 0, 4125, 8000 PPM IN DIET, TWA, Dose: 0, 4125, 8000 PPM IN DIET, TWA) “inactive; negative”; (Species: RAT, Strain/Sex: WISTAR/FEMALE, Route: ORAL, Dose: 0, 200, 800, 3200 MG/KG IN DIET FOR 122 WK (STUDY DURATION: 122 WK), Dose: 0, 200, 800, 3200 MG/KG IN DIET FOR 122 WK (STUDY DURATION: 122 WK)) “inactive; negative”; (Species: RAT, Strain/Sex: WISTAR/MALE, Route: ORAL, Dose: 0, 200, 800, 3200 MG/KG IN DIET FOR 122 WK (STUDY DURATION: WK), Dose: 0, 200, 800, 3200 MG/KG IN DIET FOR 122 WK (STUDY DURATION: WK)) “inactive; negative”.
